According to patent US20250359548A1, “METHODS OF IMPROVING STRESS TOLERANCE, GROWTH AND YIELD IN PLANTS” (Valent BioSciences LLC, priority 2020, published 2025):

Experiments:
Assay type in all cases: in vivo
Apogee wheat [1] = experiment: Example 3: grain yield in Apogee wheat under well-watered conditions, two sprays
Method: (§1) To determine if the mixtures provided unexpected results, the observed combined efficacy (“OCE”) was divided by the expected combined efficacy (“ECE”) to give an OCE/ECE ratio wherein the expected ECE is calculated by a variation of the Abbott method:
(§2) [formula] • wherein ECE is the expected combined efficacy and in which X is the control efficacy and A and B are the efficacy provided by the single active ingredients. If the ratio between the OCE of the mixture and the ECE of the mixture is greater than 1, then greater than expected interactions are present in the mixture. (Gisi, The American Phytopathological Society, 86:11, 1273-1279, 1996).
32 pots of Apogee wheat were grown in a greenhouse under ideal growing conditions. Specifically, wheat was planted in ProMix® growth media and grown for about seven weeks in a growth cabinet at 24/18° C. day/night temperature under a 16/8 hour light/dark photoperiod. Next, spray applications of 0.025% v/v Latron B-1956® in water, 30 ppm ABA, 10 ppm CPPU, and a mixture of 30 ppm ABA and 10 ppm CPPU (n=8) were made using a tank sprayer at Feekes stage 11.0. A second chemical spray application was made seven days after first spray. Plants were then grown under ideal conditions for an additional 5-6 weeks until they reached physiological maturity. Plants were then destructively harvested and measured for spike weight, grain yield, yield per spike and total above ground biomass.

rice [2] = experiment: Example 5: grain yield in rice (spray at R6)
Method: as §1, §2
32 pots of rice were grown in a greenhouse under ideal growing conditions. Specifically, rice was planted in growth media comprising sand and Pro-Mix® BX and grown for about 3-4 weeks in a growth cabinet at 24/18° C. day/night temperature under a 18/6 hour light/dark photoperiod. Next, spray applications of 0.025% v/v Latron B-1956® in water, 30 ppm ABA, 10 ppm CPPU, and a mixture of 30 ppm ABA and 10 ppm CPPU (n=8) were made using a tank sprayer at early grain filling stage (growth stage R6). Plants were then grown under ideal conditions for an additional 5-7 weeks. Plants were then destructively harvested and measured for yield of top six panicles, yield from other panicles (not top six panicles), yield of all panicles, yield per panicle and yield per top six panicles.

Apogee wheat [3] = experiment: Example 1: grain yield in Apogee wheat under water stress (greenhouse pots, spray at Feekes 11.0); conditions: drought stress
Method: 42 pots of Apogee wheat were grown in a greenhouse under ideal growing conditions. Specifically, wheat was planted in ProMix® growth media and grown for about-seven weeks in a growth cabinet at 24/18° C. day/night temperature under a 16/8 hour light/dark photoperiod. Next, spray applications of 0.025% v/v Latron B-1956® in water, 30 ppm ABA, 30 ppm 6BA, 10 ppm CPPU, a mixture of 30 ppm ABA and 30 ppm 6BA and a mixture of 30 ppm ABA and 10 ppm CPPU (n=7) were made using a tank sprayer at Feekes stage 11.0. Plants were then grown with no additional water for next 3-5 days until drought stress conditions and water-deficit stress-related phenotypes were apparent. Specifically, drought stress conditions are determined as when pots have lost 60-70% of stored soil water, as determined by determined gravimetrically by weighing pots, through evapotranspiration and water-deficit stress-related phenotypes include wilting and leaf-rolling. Plants were re-watered to bring soil moisture to saturation and subsequently grown under optimal conditions until physiological maturity. Plants were then destructively harvested and measured for spike weight, grain weight, yield per spike and harvest index. Harvest index is calculated by dividing pounds of grain by the total pounds of above ground biomass.
as §1, §2

Apogee wheat [4] = experiment: Example 4: grain yield in Apogee wheat under water stress, dose combinations; conditions: drought stress
Method: as §1, §2
72 pots of Apogee wheat were grown in a greenhouse under ideal growing conditions. Specifically, wheat was planted in ProMix® growth media and grown for about seven weeks in a growth cabinet at 24/18° C. day/night temperature under a 16/8 hour light/dark photoperiod. Next, spray applications of 0.025% v/v Latron B-1956® in water, 10 ppm ABA, 30 ppm ABA, 5 ppm CPPU, 10 ppm CPPU, a mixture of 10 ppm ABA and 5 ppm CPPU, a mixture of 30 ppm ABA and 5 ppm CPPU, a mixture of 10 ppm ABA and 10 ppm CPPU and a mixture of 30 ppm ABA and 10 ppm CPPU (n=8) were made using a tank sprayer at Feekes stage 11.0. Plants were then grown with no additional water for next 3-5 until drought stress conditions and water-deficit stress related phenotype was apparent. Plants were re-watered to bring soil moisture to saturation and grown under optimal conditions until physiological maturity. Plants were then destructively harvested and measured for spike weight, grain yield, yield per spike and total above ground biomass.

rice [5] = experiment: Example 6: grain yield in rice (spray at R5 to R6); conditions: 30 ppm spray at R5 to R6
Method: as §1, §2
48 pots of rice were grown in a greenhouse under ideal growing conditions. Specifically, rice was planted in growth media comprising sand and Pro-Mix® BX and grown for about 3-4 weeks in a growth cabinet at 24/18° C. day/night temperature under a 18/6 hour light/dark photoperiod. Next, spray applications of 0.025% v/v Latron B-1956® in water, 30 ppm ABA, 30 ppm 6BA, 45 ppm 6BA, a mixture of 30 ppm ABA and 30 ppm 6BA, and a mixture of 30 ppm ABA and 45 ppm 6BA (n=8) were made using a tank sprayer at early grain filling stage (growth stage R5 to R6). Plants were then grown under ideal conditions for an additional 5-7 weeks. Plants were then destructively harvested and measured for yield of top six panicles, yield from other panicles (not top six panicles), yield of all panicles, yield per panicle and yield per top six panicles.

Soybean = experiment: Example 8: grain yield in field soybean, Seymour IL 2020
Method: (§3) Soybean was grown in the field in Seymour, IL in 2020. Spray applications of water, 2 g/HA ABA, 6 g/HA ABA and a mixture of 2 g/HA ABA and 2 g/HA 6BA (n=8) were made using a tank sprayer at the beginning of seeding (growth stage R4 to R5). Plants were then grown until mature. Plants were then destructively harvested and measured for grain yield.

Barley = experiment: Example 9: grain yield in field barley, Argentina 2020
Method: Barley was grown in the field in Pieres, Buenos Aires Province, Argentina from Jun. 15 to Dec. 30, 2020. 2 g/HA ABA, 6 g/HA ABA and mixtures of 2 g/HA ABA and 2 g/HA 6BA and 4 g/HA ABA and 2 g/HA 6BA (n=8) were made using a tank sprayer at the beginning of milk grains (growth stage Zadoks 7.2). Plants were then grown until mature. Plants were then destructively harvested and measured for grain yield.

Apogee wheat [6] = experiment: Example 2: grain yield in Apogee wheat under water stress; conditions: 30 ppm spray; drought stress
Method: as §1, §2
Thirty-two pots of Apogee wheat were grown in a greenhouse under ideal growing conditions. Specifically, wheat was planted in ProMix® growth media and grown for about seven weeks in a growth cabinet at 24/18° C. day/night temperature under a 16/8 hour light/dark photoperiod. Next, spray applications of 0.025% v/v Latron B-1956® in water, 30 ppm ABA, 30 ppm 6BA, and a mixture of 30 ppm ABA and 30 ppm 6BA (n=8) were made using a tank sprayer at Feekes stage 11.0. Plants were then grown with no additional water for the next 3-5 days until drought stress conditions and water-deficit stress-related phenotypes were apparent. Plants were re-watered to bring soil moisture to saturation and grown under optimal conditions until physiological maturity. Plants were then destructively harvested and measured for shoot weight, spike weight, grain yield, yield per spike and total above ground biomass.

Corn = experiment: Example 7: grain yield in field corn, Seymour IL 2020
Method: as §3, with “Corn” for “Soybean”, “blister to milk stage” for “beginning of seeding”, “R2-R3).” for “R4 to R5).”

O=C(Nc1ccccc1)Nc1ccnc(Cl)c1 [CPPU, n-(2-chloro-4-pyridyl)-n′-phenylurea]
Grain Yield (Apogee wheat [1]; 10 ppm): 8.28 grams | Spike Weight (Apogee wheat [1]; 10 ppm): 11.86 grams | Total Above Ground Biomass (Apogee wheat [1]; 10 ppm): 15.98 grams | Yield/Spike (Apogee wheat [1]; 10 ppm): 0.95 grams | Yield of All (rice [2]; 10 ppm spray at R6): 26.33 grams | Yield of Others (rice [2]; 10 ppm spray at R6): 11.16 grams | Yield of Top 6 (rice [2]; 10 ppm spray at R6): 15.17 grams | Yield per Panicle (rice [2]; 10 ppm spray at R6): 2.22 grams | Yield per Top 6 (rice [2]; 10 ppm spray at R6): 2.53 grams | Grain Yield (Apogee wheat [3]; 10 ppm spray): 9.69 grams | Harvest Index (Apogee wheat [3]; 10 ppm spray): 0.56 | Spike Weight (Apogee wheat [3]; 10 ppm spray): 12.99 grams | Yield/Spike (Apogee wheat [3]; 10 ppm spray): 1.34 grams | Grain Yield (Apogee wheat [4]; 5 ppm spray): 6.20 grams | Spike Weight (Apogee wheat [4]; 5 ppm spray): 8.57 grams | Total Above Ground Biomass (Apogee wheat [4]; 5 ppm spray): 11.34 grams | Yield/Spike (Apogee wheat [4]; 5 ppm spray): 0.98 grams | Grain Yield (Apogee wheat [4]; 10 ppm spray): 6.32 grams | Spike Weight (Apogee wheat [4]; 10 ppm spray): 8.12 grams | Total Above Ground Biomass (Apogee wheat [4]; 10 ppm spray): 10.94 grams | Yield/Spike (Apogee wheat [4]; 10 ppm spray): 1.00 grams

(S)-abscisic acid [ABA]
Yield of All (rice [5]): 23.70 grams | Yield of Others (rice [5]): 5.22 grams | Yield of Top 6 (rice [5]): 19.14 grams | Yield per Panicle (rice [5]): 2.95 grams | Yield per Top 6 (rice [5]): 3.19 grams | Grain Yield (Apogee wheat [1]; 30 ppm): 8.49 grams | Spike Weight (Apogee wheat [1]; 30 ppm): 11.60 grams | Total Above Ground Biomass (Apogee wheat [1]; 30 ppm): 15.38 grams | Yield/Spike (Apogee wheat [1]; 30 ppm): 1.04 grams | Grain Yield (Soybean; 2 g/HA spray at R4 to R5): 96.57 bushels/acre | Grain Yield (Soybean; 6 g/HA spray at R4 to R5): 93.80 bushels/acre | Yield of All (rice [2]; 30 ppm spray at R6): 28.47 grams | Yield of Others (rice [2]; 30 ppm spray at R6): 12.72 grams | Yield of Top 6 (rice [2]; 30 ppm spray at R6): 15.75 grams | Yield per Panicle (rice [2]; 30 ppm spray at R6): 2.34 grams | Yield per Top 6 (rice [2]; 30 ppm spray at R6): 2.63 grams | Grain Yield (Apogee wheat [3]; 30 ppm spray): 10.24 grams | Harvest Index (Apogee wheat [3]; 30 ppm spray): 0.55 | Spike Weight (Apogee wheat [3]; 30 ppm spray): 14.06 grams | Yield/Spike (Apogee wheat [3]; 30 ppm spray): 1.40 grams | Grain Yield (Barley; 2 g/HA spray at Zadoks 7.2): 5319 | Grain Yield (Barley; 6 g/HA spray at Zadoks 7.2): 5114 | Grain Yield (Apogee wheat [6]): 12.12 grams | Shoot Weight (Apogee wheat [6]): 5.04 grams | Spike Weight (Apogee wheat [6]): 15.66 grams | Total Above Ground Biomass (Apogee wheat [6]): 20.70 grams | Yield/Spike (Apogee wheat [6]): 1.33 grams | Grain Yield (Corn; 2 g/HA spray at R2-R3): 225 bushels/acre | Grain Yield (Corn; 6 g/HA spray at R2-R3): 234 bushels/acre | Grain Yield (Apogee wheat [4]; 10 ppm spray): 6.95 grams | Spike Weight (Apogee wheat [4]; 10 ppm spray): 9.22 grams | Total Above Ground Biomass (Apogee wheat [4]; 10 ppm spray): 12.11 grams | Yield/Spike (Apogee wheat [4]; 10 ppm spray): 1.08 grams | Grain Yield (Apogee wheat [4]; 30 ppm spray): 6.72 grams | Spike Weight (Apogee wheat [4]; 30 ppm spray): 8.90 grams | Total Above Ground Biomass (Apogee wheat [4]; 30 ppm spray): 11.47 grams | Yield/Spike (Apogee wheat [4]; 30 ppm spray): 1.06 grams
